Source: US20130274258A1, “CARBAZOLE AND CARBOLINE DERIVATIVES, AND PREPARATION AND THERAPEUTIC APPLICATIONS THEREOF” (PHILIP MORRIS PRODUCTS S.A., priority 2010, published 2013)

Tests used:
[1] = test system: panel of human tumor cell lines; assay: Sensitivity of a panel of human tumor cell lines, Alamar Blue; type: cell-based; conditions: graded doses, 22 hours + 4 hours Alamar Blue
Procedure: Sensitivity and resistance of a panel of human tumor cell lines to treatment with E3 were investigated. An optimal number of cells (usually between 2'000 and 5'000 for adherent cells and 10'000 for cells growing in suspension) from the different tumor lines were treated with graded doses of E3. After 22 hours, Alamar Blue was added following the instructions provided by the manufacturer (Invitrogen). Four hours later, fluorescence of the wells was determined at 590 nm.

[2] = test system: melanoma A2058; assay: Xenograft model in nude mice, melanoma A2058; type: in vivo, human
Procedure: (§1) The compounds of the invention were evaluated in human tumor xenograft mouse models. Nude mice were subcutaneously implanted with tumor cells (melanoma A2058, colon carcinoma HCT116, fibrosarcoma HT1080 and acute myelocytic leukemia MV114) and when the tumor reached a volume of about 100-150 mm^3, treatment was initiated. Tumor growth was followed over time until tumor volume reached 1000-1500 mm^3 or up to 60 days. An example of how tumor developed over time when the animals were administered or not with E3 three times once a week (qwk×3) is presented in FIG. 7. […]

[3] = test system: caspase 3 and 7; assay: Apoptosis induction in Jurkat cells, caspase 3 and 7 assay; type: cell-based
Procedure: Compounds were assessed for their ability to induce apoptosis of Jurkat cells at 2 and 10 micromolar after 4 and 22 hours.
In order to firmly establish that the compounds of the invention cause cytotoxicity through apoptosis, IC50 of five compounds of the invention, doxorubicin and staurosporin were determined in the caspase assays; results are presented in Table 2. Importantly, the IC50 determined in the Alamar Blue and in the caspase assays were largely overlapping.

[4] = test system: colon carcinoma HCT116; assay: Xenograft model in nude mice, colon carcinoma HCT116; type: in vivo, human
Procedure: as §1

[5] = Solubilization in intravenous formulation; type: physicochemical; conditions: aqueous with cosolvent or surfactant or cyclodextrin; 5% Cremophor and 5% ethanol in water
Source text: This formulation was then used for the subsequent animal studies (maximal tolerated dose, pharmacokinetics and efficacy in cancer models).

[6] = test system: Jurkat cells; assay: Annexin V staining of Jurkat cells by flow cytometry; type: cell-based; conditions: Homo sapiens, 22 hours, 0.005 to 10 μM, read-out: half-maximal annexin V staining
Procedure: Jurkat cells were cultured for 22 hours in the presence of E3 at 1.1 μM from a stock solution at 10 mM in DMSO or in the presence of graded concentrations of E3 (0.005 to 10 μM). Then, the cell's were stained with phycoerythrin-labeled annexin V following the instructions of the manufacturer (Millipore) and analyzed by flow cytometry (Guava, Millipore) to determine annexin V staining.

[7] = target: purified porcine tubulin (Sus scrofa, UniProt P02550+P02554); assay: Inhibition of 3H-labeled colchicine binding to purified tubulin, scintillation proximity assay; conditions: graded doses
purified porcine tubulin, sequence (P02554 whole entry): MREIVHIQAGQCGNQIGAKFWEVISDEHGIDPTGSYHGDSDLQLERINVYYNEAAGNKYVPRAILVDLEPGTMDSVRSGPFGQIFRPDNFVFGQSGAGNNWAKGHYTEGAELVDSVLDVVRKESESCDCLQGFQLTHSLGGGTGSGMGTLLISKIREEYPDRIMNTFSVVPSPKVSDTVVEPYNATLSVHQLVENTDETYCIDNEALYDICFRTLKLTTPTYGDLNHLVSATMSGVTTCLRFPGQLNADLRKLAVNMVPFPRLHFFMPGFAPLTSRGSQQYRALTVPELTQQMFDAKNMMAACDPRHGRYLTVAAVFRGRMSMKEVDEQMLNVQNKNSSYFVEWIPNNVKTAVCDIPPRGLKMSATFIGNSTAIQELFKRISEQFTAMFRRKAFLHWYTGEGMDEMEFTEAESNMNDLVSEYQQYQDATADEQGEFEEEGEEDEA
purified porcine tubulin, sequence (P02550 whole entry): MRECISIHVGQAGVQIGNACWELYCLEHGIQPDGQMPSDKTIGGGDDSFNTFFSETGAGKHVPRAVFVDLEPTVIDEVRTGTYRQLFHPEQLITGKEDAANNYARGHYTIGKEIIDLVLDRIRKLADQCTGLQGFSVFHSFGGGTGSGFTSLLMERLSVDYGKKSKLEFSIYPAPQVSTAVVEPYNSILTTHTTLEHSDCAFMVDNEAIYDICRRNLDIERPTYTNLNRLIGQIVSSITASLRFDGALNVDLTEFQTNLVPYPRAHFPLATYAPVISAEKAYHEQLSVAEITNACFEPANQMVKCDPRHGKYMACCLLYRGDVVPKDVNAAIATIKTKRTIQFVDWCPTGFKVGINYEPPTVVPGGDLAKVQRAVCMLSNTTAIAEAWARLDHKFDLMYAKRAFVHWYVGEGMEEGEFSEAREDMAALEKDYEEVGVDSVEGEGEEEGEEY
Procedure: A series of compounds according to the invention and C14 vincristine and colchicine were tested for their capacity to inhibit ^3H-labeled colchicine binding to purified tubulin. Briefly, a limiting amount of tritium-labeled colchicine and graded doses of test compounds were added to purified porcine tubulin. After an incubation period, radioactivity associated with tubulin was determined using a scintillation proximity assay. […] By showing that these compounds interact with the colchicine binding site, it differentiates them from the tubulin inhibitors of the Vinca alkaloid- and taxane-types. The results also indicate that the compounds of the invention can be used in combination with the Vinca alkaloid- and taxane-types of tubulin inhibitors since they bind to a different aspect of tubulin, and likely affect tubulin polymerization via a different mechanism. The results also indicate that the compounds of the invention can be used even in patients who are refractory or non-responsive to other tubulin inhibitors, such as the tubulin inhibitors of the Vinca alkaloid- and taxane-types.

[8] = test system: fibrosarcoma HT1080; assay: Xenograft model in nude mice, fibrosarcoma HT1080; type: in vivo, human
Procedure: as §1

[9] = test system: Jurkat cells; assay: Jurkat cell viability, resazurin (Alamar Blue) assay; type: cell-based; conditions: Homo sapiens, Jurkat
Procedure: The compounds were tested for pharmacological activity. In each of the tests, each compound was tested at […] in duplicates. […] The percentage of response relative to the DMSO control was then calculated for the mean value of the duplicates of each test. The values of the three tests were finally averaged and the standard deviations calculated.
Jurkat cells (10'000 cells/well) were incubated in the presence of various concentrations of compounds, doxorubicin or staurosporine. Twenty-two hours later, cells were incubated with resazurin (20 μg/ml) for 4 hours and fluorescence was measured at 590 nm.

[10] = test system: human tumor xenograft; assay: Human tumor xenograft mouse models, summary over models; type: in vivo; conditions: nude mice, three times once a week (qwk×3), FIG. 7
Procedure: as §1

[11] = test system: acute myelocytic leukemia MV114; assay: Xenograft model in nude mice, acute myelocytic leukemia MV114; type: in vivo, human
Procedure: as §1

[12] = Pharmacokinetics after intravenous injection, plasma concentration; type: in vivo; conditions: mice, 15 mg/kg intravenous
Procedure: The pharmacokinetics of E3 and E35 were investigated. Mice intravenously injected with 15 mg/kg of E3 were bled after 0, 1, 5, 10, 20, 30, 60, 120 and 480 minutes. […] For E35, mice intravenously injected with 30 mg/kg of […] were bled after 0, 1, 5, 10, 20, 30, 60, 120 and 480 minutes. […] Concentration then decreased steadily over the 8 hours of the study. During the first four hours after injection, circulating concentrations of E3 and E35 were found largely similar.

[13] = median, endpoint = death or defined tumor volume, 23 without treatment

Structure (SMILES): Cc1nccc2c1[nH]c1ccc(-c3cc(Cl)cc(Cl)c3)cc12 [Example E3, 6-(3,5-dichlorophenyl)-1-methyl-9H-pyrido[3,4-b]indole]
- sensitivity of tumor cell lines of hematopoietic origin versus other cell lines [1]: more sensitive than the other cell lines
- % time delay to reach study endpoint relative to no treatment ([2]; best treatment): 22%
- Days to reach study endpoint with best treatment [2, 13]: 28 days
- caspase 3 and 7 activity compared to solvent control (%) ([3]; 2 μM after 4 h): −13.6%
- caspase 3 and 7 activity compared to solvent control (%) ([3]; 2 μM after 22 h): 689.0%
- caspase 3 and 7 activity compared to solvent control (%) ([3]; 10 μM after 4 h): 12.7%
- caspase 3 and 7 activity compared to solvent control (%) ([3]; 10 μM after 22 h): 743.7%
- IC50 ([3]; Homo sapiens, Jurkat cells, caspase 3/7 assay): 0.054 µM
- % time delay to reach study endpoint relative to no treatment ([4]; best treatment): 57%
- Days to reach study endpoint with best treatment [4, 13]: 36 days
- solubility [5]: ≤ 3300 µg/mL
- EC50 [6]: 100 to 200 nM
- inhibition of 3H-labeled colchicine binding to tubulin [7]: inhibited binding of colchicine
- % time delay to reach study endpoint relative to no treatment ([8]; best treatment): 91%
- Days to reach study endpoint with best treatment [8, 13]: 44 days
- IC50 [9]: 89 nM
- effect on tumor growth [10]: delayed tumor growth
- % time delay to reach study endpoint relative to no treatment ([11]; best treatment): 52%
- Days to reach study endpoint with best treatment ([11]; median, endpoint = death or defined tumor volume, 21 without treatment): 32 days
- exposure (plasma concentration) for several hours [12]: 3 to 10 µg/mL
- concentration at 1 min ([12]; mouse, plasma, 1 minute after injection): 60000 ng/mL
- concentration at 20 min ([12]; mouse, plasma, 20 minutes): 8000 ng/mL
- concentration at 8 h ([12]; mouse, plasma, 8 hours): 3000 ng/mL
